Experimental data: US20090111710A1, “CELLULAR SIGNALING PATHWAY BASED ASSAYS, REAGENTS AND KITS” (Cell NetwoRX LLC, priority 2005, published 2009)

What was measured:
[1] = biological target: T1, MKK4 (Homo sapiens, UniProt P45985); conditions: read-out: Selectivity: MKK4 activity IC50; cited from earlier work
T1 sequence (P45985 1-399): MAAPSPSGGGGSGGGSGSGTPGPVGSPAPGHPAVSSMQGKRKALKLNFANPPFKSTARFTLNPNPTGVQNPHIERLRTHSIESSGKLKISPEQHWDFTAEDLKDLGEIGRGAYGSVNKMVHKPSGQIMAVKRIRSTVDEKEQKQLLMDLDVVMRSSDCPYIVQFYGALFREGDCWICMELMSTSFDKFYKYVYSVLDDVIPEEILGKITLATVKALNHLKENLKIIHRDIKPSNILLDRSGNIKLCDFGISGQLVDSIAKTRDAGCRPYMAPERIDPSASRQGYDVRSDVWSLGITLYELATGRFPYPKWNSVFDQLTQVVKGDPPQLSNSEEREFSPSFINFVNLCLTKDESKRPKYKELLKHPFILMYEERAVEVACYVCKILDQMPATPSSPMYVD

[2] = biological target: MEK ½ (Homo sapiens, UniProt Q02750); conditions: first value, read-out: Reported Potency IC50; cited from earlier work
[3] = biological target: ERK1 (Homo sapiens, UniProt P27361); conditions: read-out: Selectivity: ERK1 activity IC50; cited from earlier work
[4] = biological target: MEK ½ (Homo sapiens, UniProt P36507); conditions: second value, read-out: Reported Potency IC50; cited from earlier work
[5] = system: PKC □; conditions: read-out: Reported Potency IC50; cited from earlier work
[6] = system: relevant target and pathway; conditions: cited from earlier work
[7] = system: PKC subtypes □, □ and □; conditions: >uM; cited from earlier work
[8] = system: angiogenesis; conditions: in vivo; cited from earlier work
[9] = system: HUVEC; conditions: 48 hrs, 20 nM VEGF; standard deviation of 10%
Protocol: The cellular phenotypes, cell proliferation and/or cell death are measured using viable cell number determination methods. Measurement of cell proliferation and cytotoxicity using the luminescent assay ViaLight™-HS High Sensitivity Cytotoxicity and Cell Proliferation BioAssay Kit from Cambrex (East Rutherford, N.J.) is optimized for HUVECs. Linear detection of cell proliferation or cell survival is possible from as few as 100 and up to 10^6 cells. […] An alternative measurement of both ATP and ADP levels provides a ratio measurement indicating cells proliferation versus cell death.

[10] = Phase III, patients with wet AMD; cited from earlier work

Chain of MEK ½ (Homo sapiens, UniProt Q02750) (Q02750 whole entry): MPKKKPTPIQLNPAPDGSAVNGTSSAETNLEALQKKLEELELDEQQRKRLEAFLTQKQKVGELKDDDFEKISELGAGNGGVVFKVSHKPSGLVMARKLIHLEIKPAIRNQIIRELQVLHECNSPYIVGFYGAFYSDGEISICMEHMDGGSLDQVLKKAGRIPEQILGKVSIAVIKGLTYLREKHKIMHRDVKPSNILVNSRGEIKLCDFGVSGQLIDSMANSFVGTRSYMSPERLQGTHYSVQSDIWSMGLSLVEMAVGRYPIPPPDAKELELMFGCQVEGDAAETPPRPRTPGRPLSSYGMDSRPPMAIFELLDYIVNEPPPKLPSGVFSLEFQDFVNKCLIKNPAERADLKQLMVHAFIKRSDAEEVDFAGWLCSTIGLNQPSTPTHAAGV
Chain of MEK ½ (Homo sapiens, UniProt P36507) (P36507 whole entry): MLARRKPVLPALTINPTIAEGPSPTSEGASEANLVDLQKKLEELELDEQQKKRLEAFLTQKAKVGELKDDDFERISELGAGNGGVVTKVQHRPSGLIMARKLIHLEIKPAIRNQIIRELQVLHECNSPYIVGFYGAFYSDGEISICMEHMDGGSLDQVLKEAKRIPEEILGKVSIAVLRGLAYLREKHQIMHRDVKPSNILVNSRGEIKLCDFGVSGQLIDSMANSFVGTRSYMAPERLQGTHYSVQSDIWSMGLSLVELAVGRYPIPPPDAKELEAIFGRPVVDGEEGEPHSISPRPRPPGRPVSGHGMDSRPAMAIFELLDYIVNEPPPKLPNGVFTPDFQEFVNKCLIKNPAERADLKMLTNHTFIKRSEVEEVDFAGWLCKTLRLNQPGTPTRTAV
Chain of ERK1 (P27361 whole entry, species assumed): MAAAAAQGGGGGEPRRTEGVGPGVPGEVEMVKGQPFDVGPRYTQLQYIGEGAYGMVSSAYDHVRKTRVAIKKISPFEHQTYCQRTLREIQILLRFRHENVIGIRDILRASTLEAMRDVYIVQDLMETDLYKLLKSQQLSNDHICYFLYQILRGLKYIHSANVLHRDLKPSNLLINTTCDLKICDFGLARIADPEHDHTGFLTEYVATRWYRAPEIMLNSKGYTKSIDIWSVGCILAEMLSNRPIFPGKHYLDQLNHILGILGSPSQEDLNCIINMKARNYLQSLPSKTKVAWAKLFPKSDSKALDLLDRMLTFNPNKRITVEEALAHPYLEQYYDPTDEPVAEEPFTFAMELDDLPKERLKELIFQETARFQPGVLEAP

For `N#C/C(=C(/N)Sc1ccc(N)cc1)c1ccccc1C(F)(F)F` [SL327], the IC50 [1] is given as > 10000 nM, the IC50 [2] is given as 180 nM and the IC50 [3] is given as > 10000 nM. The IC50 [4] was 220 nM.

In the case of `Cn1c2ccccc2c2c3c(c4c5ccccc5n(CCC#N)c4c21)CNC3=O` [Go 6976], the IC50 [5] is given as 2.3 nM, the “activity against the relevant target and pathway in vivo” value (“activity … in vivo” for short) [6] is given as “shown activity” and the “Selectivity: effect on the kinase activity of PKC subtypes □, □ and □” value [7] is given as “>uM no effect”.

In the case of `Cc1cc(C)c(/C=C2\C(=O)Nc3ccccc32)[nH]1` [SU5416], the “angiogenesis in the wound-healing model” value [8] is listed as “block angiogenesis” and the “activity … in vivo” value [6] is listed as “shown activity”.

For VEGF, the “signal to noise for HUVEC proliferation” value [9] was 2 fold.

For `C[S+]([O-])c1ccc(-c2nc(-c3ccncc3)c(-c3ccc(F)cc3)[nH]2)cc1` (stereo not drawn) [SB 203580], the “activity … in vivo” value [6] is given as “shown activity”.

B1: Lucentis: humanized antibody fragment developed at Genentech, designed to bind and inhibit Vascular Endothelial Growth Factor A (antibody, chains of the INN, looked up, V domains shown)
VH: EVQLVESGGGLVQPGGSLRLSCAASGYDFTHYGMNWVRQAPGKGLEWVGWINTYTGEPTYAADFKRRFTFSLDTSKSTAYLQMNSLRAEDTAVYYCAKYPYYYGTSHWYFDVWGQGTLVTVSS
VL: DIQLTQSPSSLSASVGDRVTITCSASQDISNYLNWYQQKPGKAPKVLIYFTSSLHSGVPSRFSGSGSGTDFTLTISSLQPEDFATYYCQQYSTVPWTFGQGTKVEIK
modifications: Fab
For B1, the vision [10] is given as “improved vision”.
